Laboratory results from US9181218B2, “Compounds for improved stem cell differentiation into hepatocytes” (Hoffmann-La Roche Inc., priority 2013, dated 2015).

What was measured:
[1] = Microarray analysis of iCell Hepatocytes treated with the compound of example 1; format: cell-based, Human; details: 2 HOUR
Description: iCell Hepatocytes treated with the compound of example 1 results in the up and down-regulation of a host of genes; including a kinetic effect on interferon-stimulated gene (ISGs) expression. See FIGS. 15-I and 15-II, 16-I and 16-II and 18 and Table 1.

[2] = tested on: HBV; experiment: Infection of iCell Hepatocytes with HBV; format: cell-based, hepatitis B virus (HBV)
Procedure: Two hundred microliters of HBV-containing serum was applied onto a 10-50% Optiprep gradient in SW41 tubes. Samples were centrifuged at 100,000×g for 2 hr at 4 C. Five hundred microliters fractions were collected from the top; each fraction was analyzed for HBsAg (ELISA) and HBV DNA (TaqMan PCR). Fractions containing virus were stored at −80 C.
Fresh iCell® Hepatocytes (day 20-23) were plated and cultured according to iCell Hepatocytes Dissociation and Plating User's Guide at 60 k cells per well in 96 well BIO Collagen IV coated plates (BD Cat#354429) 4 Hours post plating Medium C was removed and replaced with a 1:50 Matrigel (Cat#354227) overlay in Medium D. Twenty four hours post plating, cells were treated with 1 uM of the compound of example 1 in Medium D containing 1% DMSO. Media containing fresh compound was replenished 2 days later. At day 4 post plating, cells were infected with HBV at MOI (multiplicity of infection) of 10. Briefly, purified virus was diluted in medium D containing the compound of example 1 and incubated with cells for 4-6 hr or overnight. After removal of virus inoculum, fresh media containing 1 uM of the compound of example 1 was added and cells were incubated for 14 days with a medium change every 2 days. Culture media were analyzed for secreted viral antigens (HBsAg, HBeAg) and HBV DNA.

SMILES: O=C(NCc1cccc(F)c1)c1cccc2nc(-c3c(NC[C@@H](O)c4ccccc4)cc[nH]c3=O)[nH]c12 [Example 1, 2-[4-((S)-2-hydroxy-2-phenyl-ethylamino)-2-oxo-1,2-dihydro-pyridin-3-yl]-3H-benzoimidazole-4-carboxylic acid 3-fluoro-benzylamide]
- ABCA9 Raw Est Fold Change [1]: −4.37
- PCP4 Raw Est Fold Change [1]: −2.44
- infection of the four major HBV genotypes ([2]; iCell hepatocytes treated with compound): support robust infection of all four major HBV genotypes
- infection with patient-derived vs cell culture-derived (HepG2.2.15) HBV ([2]; iCell hepatocytes treated with compound, FIG. 8): support infection of patient-derived, but not cell culture-derived, HBV
- cell susceptibility to HBV infection ([2]; iCell hepatocytes, FIG. 3): cell susceptibility to HBV infection that occurred in a dose-dependent manner
- need for compound presence to maintain robust viral infection ([2]; pre-treated 6 d vs pre-treated and during infection (throughout)): Continuous presence of the compound of example 1 is required
